Some results are limits rather than exact numbers.

Data on 21 compounds can be found in patent publication US9701689B2, “Substituted pyridines and pyridazines as CCR10 receptor inhibitors” (KYOWA HAKKO KIRIN CO., LTD., priority 2012, dated 2017).

In the test the target is T1, human CCR10 (Homo sapiens, UniProt P46092).
T1 construct: expressed in transfected cells; host or cells: KJMGER8 cells (Namalwa cell-derived line), beta-estradiol-induced; hCCR10G16 cells
T1 sequence (P46092 1-362): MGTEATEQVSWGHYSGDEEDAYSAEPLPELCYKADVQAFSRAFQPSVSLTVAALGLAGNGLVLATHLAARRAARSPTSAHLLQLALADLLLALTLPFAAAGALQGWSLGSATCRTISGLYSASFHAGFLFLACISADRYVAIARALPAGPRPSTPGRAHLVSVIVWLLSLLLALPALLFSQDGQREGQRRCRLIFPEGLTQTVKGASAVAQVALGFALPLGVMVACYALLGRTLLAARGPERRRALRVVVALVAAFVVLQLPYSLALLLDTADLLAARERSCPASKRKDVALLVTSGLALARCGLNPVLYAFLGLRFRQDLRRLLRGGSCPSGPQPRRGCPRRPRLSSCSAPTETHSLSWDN
Description: CCR10 antagonistic effect: calcium assay of human CCR10 (CTACK-induced increase of intracellular calcium in hCCR10G16 cells). The conditions noted are these: at a concentration of not more than 1000 nmol/L; human CCR10-expressing hCCR10G16 cells, 300 nmol/L CTACK added; read-out: inhibition of increase in the calcium ion concentration. Format: cell-based. The procedure: [Experimental Example 1] CCR10 Antagonistic Effect
(1) Preparation of Human CCR10-Inducible Expression Plasmid
A CCR10-inducible expression plasmid was prepared according to a known method [Analytical Biochemistry, 2006, vol. 400, page 163]. A DNA encoding human CCR10 was obtained by PCR. Using human chromosome DNA (100 ng; manufactured by Clontech) as a template, synthetic DNA having the sequences depicted in SEQ ID NOs: 1 and 2 as a human CCR10 cDNA specific primer, and Pyrobest DNA Polymerase (manufactured by TAKARA SHUZO CO. LTD.) as an enzyme, a DNA encoding human CCR10 was obtained by PCR. As a buffer for PCR, the buffer attached to the enzyme to be used, which was diluted 10-fold with deionized water, was used. Using Thermal Cycler DNA Engine (manufactured by MJ Research), PCR was performed by 35 cycles of reactions composed of an incubation at 94° C. for 30 sec, at an anneal temperature of 58° C. for 30 sec, and at 72° C. for 1 min after treating at 90° C. for 2 min.
The amplified PCR fragment was cleaved with HindIII and NotI, then a human CCR10 DNA fragment was recovered by the agarose gel electrophoresis method. The fragment was incorporated between the corresponding restriction enzyme sites (HindIII-NotI) of an inducible expression vector to construct a human CCR10-inducible expression plasmid.
Using a primer specific to the sequence of plasmid (synthetic DNA having the sequences shown in SEQ ID NOs: 3 and 4), the sequence of human CCR10 DNA region was determined. For the determination of the base sequence, DNA Sequencer 377 (manufactured by Perkin Elmer. Co.) and a reaction kit (ABI Prism (registered trade mark) BigDye (registered trade mark) Terminator Cycle Sequencing Ready Reaction kit: manufactured by Applied Biosystems) were used. The sequence of human CCR10 DNA was identical with the sequence (NM 016602) registered in GenBank.
(2) Preparation of Human CCR10 Expressing Cell for Calcium Assay
Cells for detecting signals from human CCR10 in calcium assay were prepared. According to a known method [Analytical.Biochemistry (Analy Biochem), 2006, vol. 400, page 163], human CCR10-inducible expressing cells whose host cell is KJMGER8 cell (Namalwa cell-derived cell line) were prepared. Human CCR10-inducible expression plasmid produced above and Gα16 expression plasmid were co-transfected into the KJMGER8 cells by the electroporation method [Cytotechnology, 1990, vol. 3, page 133], whereby the signals from human CCR10 could be detected by calcium assay (hereinafter to be referred to as hCCR10G16 cell). A Ga16 expression plasmid was produced by incorporating human Ga16 DNA into expression vector pAMoh (WO 03/087366). Expression of human CCR10 was induced by cultivating hCCR10G16 cells in the presence of 10 nmol/L β-estradiol (manufactured by Sigma Ltd.) for 24 hr.
(3) Calcium Assay of Human CCR10
Cells expressing human CCR10 induced by the above-mentioned method were suspended in RPMI1640 medium (manufactured by Invitrogen), and adjusted to a cell density of 2×10^6 cells/mL. The cells were blended with an equivalent volume of a loading buffer prepared according to the attached protocol of Fluo-3 calcium assay kit (manufactured by Molecular Devices Corporation), and incubated at 37° C. for several dozen minutes. This mixture was dispensed to a 384 well clear-bottom plate (manufactured by Corning Incorporated) at 40 μL/well. To this plate was added a solution of the test compound in dimethyl sulfoxide (DMSO), which was diluted 37-fold with RPMI1640 medium, at 5 μL/well, and the mixture was incubated at 37° C. for 30 min. 300 nmol/L human recombinant CTACK (manufactured by R&D Systems, Inc.) diluted with RPMI1640 medium containing 1 w/v % bovine serum albumin (manufactured by Sigma Ltd.) was added at 5 μL/well and, variation of intracellular calcium ion concentration for about 5 min after the addition was measured by a screening apparatus (FDSS; manufactured by Hamamatsu Photonics K.K.). […]

In the case of `Cc1cc(Cl)ccc1Nc1cc(S(N)(=O)=O)ncc1C(=O)N1CCC(c2ccccc2)CC1` [Compound 49, 4-(4-chloro-2-methylphenylamino)-5-(4-phenylpiperidine-1-carbonyl)pyridine-2-sulfonamide], the inhibition at up to 1 µM was ≥ 50%.

On to `Cc1ccc(Cl)c(Nc2cc(S(N)(=O)=O)ncc2C(=O)N2CCC(c3ccc(F)cc3)CC2)c1` [Compound 50, 4-(2-chloro-5-methylphenylamino)-5-[4-(4-fluorophenyl)piperidine-1-carbonyl]pyridine-2-sulfonamide], for which the inhibition at up to 1 µM was ≥ 50%. The value for `Cc1cc(Nc2cc(S(N)(=O)=O)ncc2C(=O)N2CCC(c3ccc(F)cc3)CC2)c(Cl)cc1Cl` [Compound 51, 4-(2,4-dichloro-5-methylphenylamino)-5-[4-(4-fluorophenyl)piperidine-1-carbonyl]pyridine-2-sulfonamide] was ≥ 50%. The same measure for `Cc1cc(Nc2cc(S(N)(=O)=O)ncc2C(=O)N2CCC(c3ccc(F)cc3)CC2)c(Cl)cc1F` [Compound 52, 4-(2-chloro-4-fluoro-5-methylphenylamino)-5-[4-(4-fluorophenyl)piperidine-1-carbonyl]pyridine-2-sulfonamide]: ≥ 50%. As for `Cc1ccc(C)c(Nc2cc(S(N)(=O)=O)ncc2C(=O)N2CCC(c3ccc(F)cc3)CC2)c1` [Compound 53, 4-(2,5-dimethylphenylamino)-5-[4-(4-fluorophenyl)piperidine-1-carbonyl]pyridine-2-sulfonamide], the inhibition at up to 1 µM is ≥ 50%. Turning to `Cc1ccc(Nc2cc(S(N)(=O)=O)ncc2C(=O)N2CCC(c3ccc(F)cc3)CC2)c(C)c1` [Compound 55, 4-(2,4-dimethylphenylamino)-5-[4-(4-fluorophenyl)piperidine-1-carbonyl]pyridine-2-sulfonamide], the inhibition at up to 1 µM was ≥ 50%. Turning to `Cc1ccc(Nc2cc(S(N)(=O)=O)ncc2C(=O)N2CCC(c3ccc(F)cc3)CC2)c(F)c1` [Compound 56, 4-(2-fluoro-4-methylphenylamino)-5-[4-(4-fluorophenyl)piperidine-1-carbonyl]pyridine-2-sulfonamide], the inhibition at up to 1 µM was ≥ 50%.

Turning to `Cc1c(Cl)cccc1Nc1cc(S(N)(=O)=O)ncc1C(=O)N1CCC(c2ccc(F)cc2)CC1` [Compound 57, 4-(3-chloro-2-methylphenylamino)-5-[4-(4-fluorophenyl)piperidine-1-carbonyl]pyridine-2-sulfonamide], the inhibition at up to 1 µM was ≥ 50%.

For the compound `Cc1ccc(Nc2cc(S(N)(=O)=O)ncc2C(=O)N2CCC(c3ccc(F)cc3)CC2)c(Cl)c1` [Compound 58, 4-(2-chloro-4-methylphenylamino)-5-[4-(4-fluorophenyl)piperidine-1-carbonyl]pyridine-2-sulfonamide], the inhibition at up to 1 µM was ≥ 50%.

As for `Cc1c(Nc2cc(S(N)(=O)=O)ncc2C(=O)N2CCC(c3ccc(F)cc3)CC2)ccc(Cl)c1F` [Compound 59, 4-(4-chloro-3-fluoro-2-methylphenylamino)-5-[4-(4-fluorophenyl)piperidine-1-carbonyl]pyridine-2-sulfonamide], the inhibition at up to 1 µM was ≥ 50%.

Regarding `Cc1c(F)cccc1Nc1cc(S(N)(=O)=O)ncc1C(=O)N1CCC(c2ccc(F)cc2)CC1` [Compound 60, 4-(3-fluoro-2-methylphenylamino)-5-[4-(4-fluorophenyl)piperidine-1-carbonyl]pyridine-2-sulfonamide], the inhibition at up to 1 µM was ≥ 50%. The same measure for `Cc1c(Nc2cc(S(N)(=O)=O)ncc2C(=O)N2CCC(c3ccc(F)cc3)CC2)cccc1C(F)(F)F` [Compound 61, 5-[4-(4-fluorophenyl)piperidine-1-carbonyl]-4-[2-methyl-3-(trifluoromethyl)phenylamino]pyridine-2-sulfonamide]: ≥ 50%; for `Cc1ccc(F)cc1Nc1cc(S(N)(=O)=O)ncc1C(=O)N1CCC(c2ccc(F)cc2)CC1` [Compound 62, 4-(5-fluoro-2-methylphenylamino)-5-[4-(4-fluorophenyl)piperidine-1-carbonyl]pyridine-2-sulfonamide]: ≥ 50%; for `Cc1ccc(Nc2cc(S(N)(=O)=O)ncc2C(=O)N2CCC(c3ccc(F)cc3)CC2)cc1F` [Compound 64, 4-(3-fluoro-4-methylphenylamino)-5-[4-(4-fluorophenyl)piperidine-1-carbonyl]pyridine-2-sulfonamide]: ≥ 50%. Take `Cc1cccc(Nc2cc(S(N)(=O)=O)ncc2C(=O)N2CCC(c3ccc(F)cc3)CC2)c1C` [Compound 65, 4-(2,3-dimethylphenylamino)-5-[4-(4-fluorophenyl)piperidine-1-carbonyl]pyridine-2-sulfonamide]: the inhibition at up to 1 µM was ≥ 50%. `Cc1c(Cl)ccc(Nc2cc(S(N)(=O)=O)ncc2C(=O)N2CCC(c3ccc(F)cc3)CC2)c1C` [Compound 66, 4-(4-chloro-2,3-dimethylphenylamino)-5-[4-(4-fluorophenyl)piperidine-1-carbonyl]pyridine-2-sulfonamide]: the inhibition at up to 1 µM was ≥ 50%. The value for `Cc1cc(Nc2cc(S(N)(=O)=O)ncc2C(=O)N2CCC(c3ccc(F)cc3)CC2)c(F)cc1Cl` [Compound 67, 4-(4-chloro-2-fluoro-5-methylphenylamino)-5-[4-(4-fluorophenyl)piperidine-1-carbonyl]pyridine-2-sulfonamide] was ≥ 50%. The value for `Cc1ccc(F)c(Nc2cc(S(N)(=O)=O)ncc2C(=O)N2CCC(c3ccc(F)cc3)CC2)c1` [Compound 68, 4-(2-fluoro-5-methylphenylamino)-5-[4-(4-fluorophenyl)piperidine-1-carbonyl]pyridine-2-sulfonamide] was ≥ 50%. For `COc1ccc(Cl)cc1Nc1cc(S(N)(=O)=O)ncc1C(=O)N1CCC(c2ccc(F)cc2)CC1` [Compound 69, 4-(5-chloro-2-methoxyphenylamino)-5-[4-(4-fluorophenyl)piperidine-1-carbonyl]pyridine-2-sulfonamide], the inhibition at up to 1 µM is ≥ 50%. The value for `NS(=O)(=O)c1cc(Nc2cc(F)ccc2Cl)c(C(=O)N2CCC(c3ccc(F)cc3)CC2)cn1` [Compound 70, 4-(2-chloro-5-fluorophenylamino)-5-[4-(4-fluorophenyl)piperidine-1-carbonyl]pyridine-2-sulfonamide] was ≥ 50%; that for `NS(=O)(=O)c1cc(Nc2cc(F)c(Cl)cc2Cl)c(C(=O)N2CCC(c3ccc(F)cc3)CC2)cn1` [Compound 71, 4-(2,4-dichloro-5-fluorophenylamino)-5-[4-(4-fluorophenyl)piperidine-1-carbonyl]pyridine-2-sulfonamide] was ≥ 50%.
